Results reported in ChEMBL document CHEMBL1201862, “PubChem BioAssay data set” (2004).
Activity calls are given as the source filed them.

Legend:
[1] = molecular target: Cytochrome P450 2C19 (Homo sapiens, UniProt P33261); assay: Cytochrome panel assay with activity outcomes. Panel member name: p450-cyp2c19 Compounds with AC50 equal or less than 10 uM are considered active; assay type: functional
[2] = molecular target: T1, Heat shock factor protein 1 (Mus musculus, UniProt P38532); assay: decrease of HSF1-responsive luciferase luminescence – cell-based, NIH3T3, dose retest, confirmation (AID 2382); assay type: functional;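 further: NIH3T3 fibroblasts with HSF1-driven luciferase reporter stressed by proteasome inhibitor MG132; luminescence from HSF1-driven luciferase expression after 8 hours of MG132 stress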
T1 sequence (P38532 whole entry): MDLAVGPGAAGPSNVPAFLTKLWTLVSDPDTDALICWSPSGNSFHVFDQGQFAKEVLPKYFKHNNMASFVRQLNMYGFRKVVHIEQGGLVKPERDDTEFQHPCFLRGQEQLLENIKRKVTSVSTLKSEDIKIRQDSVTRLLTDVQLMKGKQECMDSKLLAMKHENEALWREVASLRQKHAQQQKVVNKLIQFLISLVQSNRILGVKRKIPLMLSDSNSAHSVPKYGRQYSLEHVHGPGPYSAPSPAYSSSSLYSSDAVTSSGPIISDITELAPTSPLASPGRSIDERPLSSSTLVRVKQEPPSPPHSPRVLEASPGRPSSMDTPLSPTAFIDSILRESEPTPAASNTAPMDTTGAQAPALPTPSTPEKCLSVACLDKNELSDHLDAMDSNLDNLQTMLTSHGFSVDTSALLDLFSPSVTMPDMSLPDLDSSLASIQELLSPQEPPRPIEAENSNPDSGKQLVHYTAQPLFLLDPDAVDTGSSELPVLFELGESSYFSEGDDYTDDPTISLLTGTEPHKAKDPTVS

[3] = molecular target: T2, Protein RecA (Mycobacterium tuberculosis, UniProt P9WHJ3); assay: Fluorescence Cell-Free Homogeneous Dose Retest to Identify Inhibitors of RecA-Intein Splicing Activity. [Related pubchem assays (depositor defined):AID2097, AID2223, AID489010, AID492950]; assay type: functional
T2 sequence (P9WHJ3 whole entry): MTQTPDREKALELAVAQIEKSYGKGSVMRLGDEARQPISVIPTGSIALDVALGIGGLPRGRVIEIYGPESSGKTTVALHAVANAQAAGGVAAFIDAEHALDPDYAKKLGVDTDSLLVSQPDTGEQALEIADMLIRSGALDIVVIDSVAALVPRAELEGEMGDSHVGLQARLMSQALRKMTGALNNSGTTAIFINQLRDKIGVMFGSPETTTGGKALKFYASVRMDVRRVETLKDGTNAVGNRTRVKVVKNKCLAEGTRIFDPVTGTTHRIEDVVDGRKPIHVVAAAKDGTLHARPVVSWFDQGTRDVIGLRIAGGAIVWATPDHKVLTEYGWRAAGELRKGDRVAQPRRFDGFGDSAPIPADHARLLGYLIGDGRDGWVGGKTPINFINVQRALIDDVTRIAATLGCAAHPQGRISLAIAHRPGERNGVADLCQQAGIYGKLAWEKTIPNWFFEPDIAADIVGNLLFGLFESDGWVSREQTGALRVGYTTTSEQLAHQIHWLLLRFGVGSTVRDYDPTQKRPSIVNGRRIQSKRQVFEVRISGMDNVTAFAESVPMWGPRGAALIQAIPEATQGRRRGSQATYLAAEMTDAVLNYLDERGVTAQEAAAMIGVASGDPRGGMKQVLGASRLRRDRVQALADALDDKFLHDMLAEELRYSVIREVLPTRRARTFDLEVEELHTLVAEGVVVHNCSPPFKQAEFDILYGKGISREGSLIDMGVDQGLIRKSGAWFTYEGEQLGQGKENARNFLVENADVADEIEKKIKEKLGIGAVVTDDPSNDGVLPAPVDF

[4] = molecular target: T3, Replicative DNA helicase DnaB (Mycobacterium tuberculosis, UniProt P9WMR3); assay: DnaB intein splicing inhibitors, dose response, biochemical, cell-free fluorescence (AID 449749); assay type: functional
T3 sequence (P9WMR3 whole entry): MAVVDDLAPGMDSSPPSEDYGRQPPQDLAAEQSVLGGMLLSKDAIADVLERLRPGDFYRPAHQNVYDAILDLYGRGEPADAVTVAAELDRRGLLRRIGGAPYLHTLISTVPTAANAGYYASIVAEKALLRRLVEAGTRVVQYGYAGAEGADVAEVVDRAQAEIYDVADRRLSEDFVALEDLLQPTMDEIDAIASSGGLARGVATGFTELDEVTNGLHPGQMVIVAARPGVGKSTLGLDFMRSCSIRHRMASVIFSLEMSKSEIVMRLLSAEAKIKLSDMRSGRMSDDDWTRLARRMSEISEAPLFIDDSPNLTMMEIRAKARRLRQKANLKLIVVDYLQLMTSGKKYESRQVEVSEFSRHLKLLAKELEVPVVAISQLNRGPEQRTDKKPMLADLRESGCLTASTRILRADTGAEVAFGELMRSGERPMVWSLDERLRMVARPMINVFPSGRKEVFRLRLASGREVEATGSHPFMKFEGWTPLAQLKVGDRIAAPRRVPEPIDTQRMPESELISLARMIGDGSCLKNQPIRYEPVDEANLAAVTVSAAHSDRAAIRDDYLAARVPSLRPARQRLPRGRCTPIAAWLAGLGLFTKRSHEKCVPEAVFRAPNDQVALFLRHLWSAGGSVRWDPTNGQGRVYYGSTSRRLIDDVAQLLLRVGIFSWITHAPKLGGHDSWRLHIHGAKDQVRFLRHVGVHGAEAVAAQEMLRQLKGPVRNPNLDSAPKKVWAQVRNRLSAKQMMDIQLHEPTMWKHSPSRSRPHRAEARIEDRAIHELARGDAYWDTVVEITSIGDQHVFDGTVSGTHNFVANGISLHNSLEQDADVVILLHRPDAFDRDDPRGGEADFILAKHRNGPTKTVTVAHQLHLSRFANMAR

[5] = molecular target: FAD-linked sulfhydryl oxidase ALR (Homo sapiens, UniProt P55789); assay: ALR-catalysed DTT oxidation blockers – biochemical, H2O2 detection, luminescence, cherry-pick, dose response (AID 493248)
[6] = NIH-3T3 fibroblast cytotoxicity, dose response, cytotoxicity control, cell-based, fluorescence, Alamar Blue, secondary assay (AID 2327); assay type: functional;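 further: NIH-3T3 mouse fibroblasts cultured with fluconazole at 8 µg/mL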
[7] = fluconazole-exposed Candida albicans growth modulators – fluorescence, retest, confirmation (AID 2467); assay type: functional, cell-based
[8] = molecular target: T4, Rac GTPase-activating protein 1 (Homo sapiens, UniProt Q9H0H5); assay: blockers of MgcRacGAP-driven Rac1 GTP hydrolysis – biochemical, ADP Hunter fluorescence, primary and confirmatory, confirmation (AID 624330); assay type: functional
T4 sequence (Q9H0H5 whole entry): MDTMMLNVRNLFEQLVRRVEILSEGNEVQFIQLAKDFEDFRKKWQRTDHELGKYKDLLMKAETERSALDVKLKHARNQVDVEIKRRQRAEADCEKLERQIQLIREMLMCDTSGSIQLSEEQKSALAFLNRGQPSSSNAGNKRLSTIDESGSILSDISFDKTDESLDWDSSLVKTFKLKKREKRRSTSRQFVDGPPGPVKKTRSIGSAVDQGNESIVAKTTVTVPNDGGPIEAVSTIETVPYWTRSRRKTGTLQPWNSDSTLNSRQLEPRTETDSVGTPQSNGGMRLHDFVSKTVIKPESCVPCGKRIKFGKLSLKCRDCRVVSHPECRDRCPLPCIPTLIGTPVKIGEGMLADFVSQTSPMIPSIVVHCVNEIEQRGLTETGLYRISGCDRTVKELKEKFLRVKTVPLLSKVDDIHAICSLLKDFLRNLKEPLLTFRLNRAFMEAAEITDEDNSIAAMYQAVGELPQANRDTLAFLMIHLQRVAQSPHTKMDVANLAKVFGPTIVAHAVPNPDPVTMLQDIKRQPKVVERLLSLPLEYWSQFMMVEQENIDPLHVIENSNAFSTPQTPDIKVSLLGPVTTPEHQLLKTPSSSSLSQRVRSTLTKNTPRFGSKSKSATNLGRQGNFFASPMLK

[9] = molecular target: Cytochrome P450 2C9 (Homo sapiens, UniProt P11712)
[10] = reduction of Shn3 3'UTR-driven luciferase in osteoblasts – cell-based, Clone20 osteoblasts, firefly luciferase, cherry-picked, dose response (AID 624132); assay type: functional;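 further: firefly luciferase luminescence from reporter carrying the Shn3 3'UTR in osteoblasts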

Sequence of FAD-linked sulfhydryl oxidase ALR (P55789 whole entry): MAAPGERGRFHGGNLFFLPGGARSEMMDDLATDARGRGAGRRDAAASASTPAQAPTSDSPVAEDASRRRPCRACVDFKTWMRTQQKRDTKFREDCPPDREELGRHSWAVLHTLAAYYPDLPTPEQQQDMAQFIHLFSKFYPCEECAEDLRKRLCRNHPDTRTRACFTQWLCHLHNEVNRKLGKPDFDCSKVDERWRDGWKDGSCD
Sequence of Cytochrome P450 2C19 (P33261 whole entry): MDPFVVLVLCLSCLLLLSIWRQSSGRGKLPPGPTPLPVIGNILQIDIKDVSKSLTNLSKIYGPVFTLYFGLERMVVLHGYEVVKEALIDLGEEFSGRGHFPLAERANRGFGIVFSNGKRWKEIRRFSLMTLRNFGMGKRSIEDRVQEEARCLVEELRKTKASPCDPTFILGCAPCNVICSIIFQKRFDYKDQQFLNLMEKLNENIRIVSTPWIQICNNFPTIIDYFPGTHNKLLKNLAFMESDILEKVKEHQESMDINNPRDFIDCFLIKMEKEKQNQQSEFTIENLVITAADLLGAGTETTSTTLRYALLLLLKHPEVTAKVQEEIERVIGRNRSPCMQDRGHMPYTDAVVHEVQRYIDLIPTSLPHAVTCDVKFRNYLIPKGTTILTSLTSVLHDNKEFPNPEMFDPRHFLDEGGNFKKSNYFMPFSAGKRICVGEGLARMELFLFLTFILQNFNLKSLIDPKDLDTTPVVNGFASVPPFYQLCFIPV
Sequence of Cytochrome P450 2C9 (P11712 whole entry): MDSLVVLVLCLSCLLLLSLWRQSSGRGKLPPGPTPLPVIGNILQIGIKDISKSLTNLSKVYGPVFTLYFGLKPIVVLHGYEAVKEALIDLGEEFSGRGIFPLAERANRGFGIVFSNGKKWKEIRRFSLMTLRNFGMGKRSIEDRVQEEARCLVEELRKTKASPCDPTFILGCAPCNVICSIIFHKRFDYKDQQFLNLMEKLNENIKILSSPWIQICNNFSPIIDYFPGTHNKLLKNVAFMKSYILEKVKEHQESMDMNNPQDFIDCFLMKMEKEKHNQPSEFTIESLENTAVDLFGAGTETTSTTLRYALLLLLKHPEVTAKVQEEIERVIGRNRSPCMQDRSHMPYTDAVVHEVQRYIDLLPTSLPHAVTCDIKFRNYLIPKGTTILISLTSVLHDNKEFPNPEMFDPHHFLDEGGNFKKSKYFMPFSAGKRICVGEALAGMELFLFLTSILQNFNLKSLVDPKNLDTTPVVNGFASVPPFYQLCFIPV

## Cc1cc(=O)oc(C)c1C(=O)NCc1ccccc1
[1]; read-out: AC50
  AC50: 39.8 µM (inconclusive)

## Cc1ccc(NC(=O)CCN2C(=O)C3CCCCC3C2=O)cc1[N+](=O)[O-] (stereo not given)
[2]
  EC50: > 195 µM (not active)

## COc1nc(NC(C)C)nc(N(C#N)CN2C(=O)c3ccccc3S2(=O)=O)n1
[3]
  EC50: 26.4 µM (inconclusive)
[4]
  AC50: 24.4 µM (active)

## Cc1ccc(S(=O)(=O)c2ccc(Oc3ccccc3)cc2)cc1
[2]
  EC50: 21.5 µM (active)

## N=C(NC(=O)c1ccc(Cl)cc1)Nc1nc2ccccc2o1
[2]
  EC50: > 195 µM (not active)

## CCS(=O)(=O)c1nc(S(=O)(=O)c2ccc(C)cc2)c(N2CCC(C)CC2)s1
[2]
  EC50: > 195 µM (not active)

## O=C(CNC1=NCCC1)c1ccc(Cl)cc1
[3]
  EC50: 23.1 µM (active)
[4]
  AC50: 127 µM (active)

## O=C(CN1CCN(c2ccccc2O)CC1)Nc1cccnc1Cl
[5]
  AC50: 2.17 µM (active)

## Cc1ccc(NNC(=O)c2ccno2)cc1C
[6]
  EC50: > 160 µM (inactive)
[5]
  AC50: 0.439 µM (active)
[7]
  EC50: 0.763 µM (active)

## CN(CC(=O)Nc1ccccc1Br)C(=O)c1cccn1C
[2]
  EC50: > 195 µM (not active)

## CC(=O)Nc1ccc(S(=O)(=O)NC(C)C(=O)NCCc2ccc(F)cc2)cc1 (stereo not given)
[5]
  AC50: 0.031 µM (active)

## CC(=O)N1CC[n+]2c(-c3ccc(Cl)cc3)csc21
[5]
  AC50: 1.88 µM (active)

## CN(C)NC(=O)c1ccsc1NC(=O)c1ccc(S(=O)(=O)N2CCCC2)cc1
[5]
  AC50: 0.835 µM (active)

## C/C(=C\c1ccc(N)cc1)c1nc2ccccc2[nH]1
[5]
  AC50: 0.321 µM (active)

## O=C(NN=Cc1ccc(O)cc1)c1cc[n+](Cc2ccccc2)cc1
[5]
  AC50: 2.05 µM (active)
[8]
  IC50: 137 µM (active)

## COc1cccc(NC(=S)N(CCC(C)C)C2CCN(C(C)=O)CC2)c1
[2]
  EC50: > 195 µM (not active)

## COc1ccccc1/C=C/C1(C(=O)NC2CCCC2)CC(=O)N1c1ccc(C)cc1 (stereo not given)
[3]
  EC50: 8.52 µM (active)
[4]
  AC50: 9.29 µM (active)

## COc1ccc2nc(O)c(CN(Cc3cccs3)S(=O)(=O)c3c(C)ccc4nsnc34)cc2c1
[2]
  EC50: 0.503 µM (active)

## CCS(=O)(=O)N1CCC(C(=O)NCc2cccnc2)CC1
[9]
  AC50: 11.2 µM (inconclusive)
[1]; read-out: AC50
  AC50: 22.4 µM (inconclusive)

## Cc1cc(N=Nc2ccc(Cl)cc2)cc(CN2CCCC2)c1O
[2]
  EC50: > 195 µM (not active)

## CC(=O)c1cccc(NC(=O)CSc2ncc(C(=O)Nc3ccccc3)c(=O)n2C)c1
[3]
  EC50: 1.21 µM (active)
[4]
  AC50: > 380 µM (inconclusive)

## CCOC(=O)N1CCN(C(=O)CSCc2ccc(Cl)cc2)CC1
[1]; read-out: AC50
  AC50: 17.8 µM (inconclusive)

## O=C(Cc1ccccc1F)Nc1nc2ccccc2[nH]1
[3]
  EC50: > 380 µM (inconclusive)
[4]
  AC50: 0.0489 µM (inconclusive)

## CCOC(=O)C(C)c1ccc2cc(OC)ccc2c1 (stereo not given)
[2]
  EC50: > 195 µM (not active)

## CC(C)NS(=O)(=O)c1ccc(OCC(=O)N2CCCC2)c(Cl)c1
[2]
  EC50: > 195 µM (not active)

## CN(C)c1ccc(NC(=O)CN2CCc3ccccc3C2)cc1
[5]
  AC50: 2.23 µM (active)

## Fc1ccc(Sc2nc(-c3ccccc3)nnc2C(F)(F)F)cc1
[3]
  EC50: 0.66 µM (active)
[4]
  AC50: 1.45 µM (active)

## COc1ccc(C(=O)Nc2ccncc2)cc1[N+](=O)[O-]
[3]
  EC50: > 380 µM (inactive)
[4]
  AC50: > 380 µM (inactive)

## O=C(c1ccc2c(c1)OCO2)N1CCC2(CC1)OCCO2
[2]
  EC50: > 195 µM (not active)

## CCSc1nnc(NC(=O)c2cccc(S(=O)(=O)N(C)c3ccccc3)c2)s1
[5]
  AC50: 2.75 µM (active)

## CC(NS(C)(=O)=O)C(c1cccs1)N1CCN(c2ccccc2)CC1 (stereo not given)
[5]
  AC50: 2.93 µM (active)

## Cc1ccc(C(c2c(C)n[nH]c2O)c2c(C)n[nH]c2O)cc1[N+](=O)[O-]
[3]
  EC50: 0.195 µM (active)
[4]
  AC50: 0.442 µM (active)

## O=C1CCc2cccc(O)c2N1
[10]
  AC50: 12.2 µM (active)

## CCc1n[nH]c2c1C(c1ccsc1)C(C#N)=C(N)O2 (stereo not given)
[3]
  EC50: 9.87 µM (active)
[4]
  AC50: 14.5 µM (active)

## CCC(=O)Oc1oc(-c2ccccc2)nc1/C=N/c1ccccc1OC
[2]
  EC50: 10.3 µM (active)

## Cn1ccnc1 [1-METHYLIMIDAZOLE]
[1]
  AC50: inconclusive

## O=C(O)c1c2ccccc2cc2ccccc12 [ANTHRACENE-9-CARBOXYLIC ACID]
[1]; read-out: AC50
  AC50: 25.1 µM (inconclusive)
